Laboratory results as given in the METLIN SMRT retention time set (Domingo-Almenara et al. 2019).

Experiment: gradient 5% acetonitrile 3 min, to 50% in 2 min, to 85% in 15 min, held 3 min, 100 µL/min
Details: column: Zorbax Extend-C18 2.1 x 50 mm; eluents: water / acetonitrile, 0.1% formic acid
Method in brief: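 Data were gathered over 3 months by HPLC coupled to a quadrupole time-of-flight mass spectrometer, operated in positive and negative ionization mode. Mixtures of ~100 pure standards ran on a Zorbax Extend-C18 column (2.1 × 50 mm, 1.8 μm) at 100 μL/min, with water and acetonitrile each containing 0.1% formic acid and dead and dwell volumes of 40 μL and 900 μL. Retention time was read from adduct peaks picked by computer and checked manually.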

| Structure (SMILES) | RP-LC retention time [s] |
| --- | --- |
| CCc1noc([C@@H]2CC(F)(F)CN2C(=O)c2cnco2)n1 | 690 |
| CCn1cc(S(=O)(=O)NCc2ccc(C)cc2)c2cccnc21 | 900 |
| COCCNC(=O)C(=O)Nc1ccc(Br)cc1F | 839 |
| CCc1noc(NC(C)=O)c1-c1ccc(C)c(S(=O)(=O)Nc2ccc(C)c(F)c2)c1 | 856 |
| COCc1nc(-c2ccc(OC3CN(Cc4ccsc4)C3)cc2)no1 | 656 |
| CCc1cccc(NC(=O)c2c(C)oc3nc(C)nc(N4CCCC4)c23)c1 | 861 |
| COC(=O)C1=CN(c2ccc(F)cc2)c2ccc(F)cc2S1(=O)=O | 847 |
| COc1cccc(-c2nc(-c3cccc(-c4ccn[nH]4)c3)no2)c1 | 1010 |
| COc1ccc(-c2nc(-c3ccc4ncn(C(C)C)c4c3)no2)c(OC)c1 | 729 |
| Cc1c(-c2noc(-c3ccc4cc[nH]c4c3)n2)nnn1-c1ccc(F)cc1 | 996 |
| CN(C)CCn1nnc2cc(-c3noc(-c4cccc(C#N)c4)n3)ccc21 | 633 |
| CCC(Sc1nncn1C)C(=O)Nc1nnc(-c2cccc([N+](=O)[O-])c2)s1 (stereo not given) | 689 |
| CC1CCC2(CC1)NC(=O)N(CC(=O)Nc1ccc3c(c1)OCO3)C2=O (stereo not given) | 708 |
| O=C(C1CCCN1c1nnc(N2CCCC2=O)s1)N1CCN(c2ccccn2)CC1 (stereo not given) | 547 |
| O=C(Nc1ncc([N+](=O)[O-])s1)c1c2c(nn1C1CCS(=O)(=O)C1)CCC2 (stereo not given) | 792 |
| CC(C)(C)CC(=O)N1CCCC(CCc2nnc(C3CCOCC3)o2)C1 (stereo not given) | 758 |
| CN(C)S(=O)(=O)c1ccc(-c2nnc(NC(=O)c3ccc4ncsc4c3)o2)cc1 | 669 |
| CCc1noc(-c2ccc(=O)n(CC(=O)Nc3ccc(F)cc3)c2)n1 | 1020 |
| COc1ccc(N2CC(c3nc(-c4cccnc4)no3)CC2=O)cc1OC (stereo not given) | 665 |
| COC(=O)C1C(=O)C2=C(CC1C)NC(C)=C(C(=O)OCCOC(C)C)C2c1cccc(F)c1 (stereo not given) | 961 |
| Cc1cc(Cl)ccc1S(=O)(=O)NCCn1c(C)cnc1C1CCC1 | 592 |
| Cc1ccc(C2=NC3(CCN(C(=O)c4ccc(F)cc4F)CC3)ON2)cc1 | 855 |
| CCOC(=O)c1cc(S(=O)(=O)N2CCCC2C(=O)NC2CCCCC2)cn1C (stereo not given) | 875 |
| COc1ccc(-c2cc(C(F)(F)F)n3ncc(C(=O)O)c3n2)cc1 | 822 |
| CC(C)Cn1cc(S(=O)(=O)Nc2ccccc2F)c2cccnc21 | 926 |

| Structure (SMILES) | RP-LC retention time [s] |
| --- | --- |
| Cc1nc2cc(-c3noc(-c4ccccc4C(F)(F)F)n3)ccc2o1 | 1080 |
| COc1cccc2sc(N3CCc4ccccc4C3)nc12 | 1000 |
| Cc1ccc2ncn(C3CCN(S(=O)(=O)c4ccc(CC(C)C)cc4)CC3)c(=O)c2c1 | 1150 |
| CC(C)CNC(=O)c1nn(-c2ccc(F)cc2)nc1CO | 888 |
| CC(=O)N1c2ccccc2CC1c1nc(C(C)C)no1 (stereo not given) | 841 |
| CC(C)c1noc(-c2ccnc(-n3cnc(C(=O)NCc4ccco4)c3)c2)n1 | 809 |
| COc1ccccc1-c1nnc2sc(-c3cc(CC(C)C)[nH]n3)nn12 | 891 |
| CCCn1cc(-c2nc(-c3ccncc3)no2)c(=O)c2cc(F)ccc21 | 728 |
| O=C(NCC1(CO)CC1)NC1CCCCC1 | 621 |
| CCn1cc(-c2nc(-c3ccc(C)cc3)no2)c(=O)c2cc(F)c(N3CCOCC3)cc21 | 961 |
| COc1ccc(-c2nc(-c3cn(Cc4ccc(F)cc4)nn3)no2)cc1OC | 914 |
| Cc1cc(N2CCCC2)n2nc(CN3CCN(c4ccccn4)CC3)nc2n1 | 553 |
| CCOc1cccc(-c2noc(Cn3c(=O)n(-c4ccc(OC)cc4)c(=O)c4sccc43)n2)c1 | 1000 |
| COc1ccc(-c2ccnc3nc(C(C)C)nn23)cc1 | 845 |
| Cc1c(-c2noc(-c3ccc4c(c3)OCO4)n2)nnn1-c1ccc(F)cc1 | 745 |
| COc1ccc(OC)c(Nc2c(-c3ccccn3)nc3cnccn23)c1 | 744 |
| COCc1cc(=O)n(CC(=O)NCc2ccc(F)cc2F)c(N)n1 | 603 |
| COCCn1c(SCc2nc(-c3ccc(F)cc3)no2)nc2cc3c(cc2c1=O)OCO3 | 1070 |
| COc1ccc(-c2cn3ccn(-c4cccc(Cl)c4)c(=O)c3n2)cc1 | 837 |
| c1ccc(-c2nnc(-c3ccc(-n4ccnc4)nc3)o2)cc1 | 639 |
| O=C(Nc1ccc2c(c1)OCCO2)N1CCCC1c1nc(-c2ccc(F)cc2F)no1 (stereo not given) | 882 |
| Cc1cc(C)cc(-c2nc(C3CC(=O)N(c4ccc(Cl)cc4)C3)no2)c1 (stereo not given) | 1200 |
| CCCN1C(=O)c2cc(S(=O)(=O)NCCc3cccs3)ccc2Oc2cccnc21 | 1050 |
| CNC(=O)c1cc2nc(N(C)C)n(-c3ccc(OC)cc3)c2s1 | 888 |

Second part, the compound after the results:

| RP-LC retention time [s] | Structure (SMILES) |
| --- | --- |
| 736 | Cc1noc(C)c1C1CCCN1C(=O)Cc1ccccc1F (stereo not given) |
| 732 | Cc1cccc(CNC(=O)c2cc3n(n2)CC(C)(C(=O)NCc2ccccc2)N(C)C3=O)c1 (stereo not given) |
| 974 | CCc1ccc(NC(=O)CSc2cc(N3CCCCC3)ncn2)cc1 |
| 815 | CCc1ccccc1N(C)C(=O)Cc1c(C(=O)O)c(C)cn1C |
| 704 | O=C(Cc1ccccc1Cl)NCC1CCN(C(=O)Oc2ccccc2)CC1 |
| 640 | Cc1ccc(CNC(=O)C2CCCN(c3nc4ncccc4n4cccc34)C2)cc1 (stereo not given) |
| 1080 | CC(C)C(=O)Nc1ccc(C2(C(=O)N(C)Cc3ccccc3)CCCCC2)cc1 |
| 683 | Cn1c(=O)c2ccn(CC(=O)N3CCN(c4ccc(F)cc4)CC3)c2n(C)c1=O |
| 598 | CC(C)(Oc1ccc(Cl)cc1)C(=O)N1CCN(CCn2cccn2)CC1 |
| 1030 | CCCn1c(=O)c2cc(C(=O)NCc3ccc(C)cc3)nn2c2ccccc21 |
| 943 | COC(=O)c1ccccc1NC(=O)N(Cc1cc(=O)[nH]c2ccccc12)CC(C)C |
| 776 | CSc1cccc(NC(=O)N2CCN(Cc3nc4ccc(C)cc4o3)CC2)c1 |
| 573 | O=S(=O)(Cc1cccc(Cl)c1)NCC1CCN(Cc2ccco2)CC1 |
| 927 | Cc1cccc(NC(=O)N(C)CCc2noc(COc3ccccc3)n2)c1 |
| 610 | COC(=O)c1cnc(N2CCN(C)CC2)c2ccccc12 |
| 554 | O=C(NCCCn1ncccc1=O)c1coc(NC(=O)c2cnccn2)n1 |
| 656 | Cc1ccccc1NC(=O)N1CCCC(Cn2c(C3CC3)nc3cccnc32)C1 (stereo not given) |
| 623 | COCCCNC(=O)C1CCN(c2nc3cccnc3s2)CC1 |
| 658 | CCc1cc(=O)n(CC(=O)Nc2ccccc2C)c(N2CCOCC2)n1 |
| 592 | O=C(C1CCN(c2nc3ccc(-c4cccnc4)nc3s2)CC1)N1CCOCC1 |
| 717 | COc1ccc(-n2ncc(C(=O)N3CCN(C(=O)c4ccco4)CC3)c2-n2cccc2)cc1 |

| RP-LC retention time [s] | Structure (SMILES) |
| --- | --- |
| 678 | O=C(Nc1ccc2c(c1)OCCO2)N1C[C@@H]2C[C@H]1C[C@@H]2NS(=O)(=O)c1ccccc1 |
| 816 | Cc1ccc(NC(=O)NCC(c2cccnc2)c2cn(C)c3ccccc23)cc1 (stereo not given) |
| 1220 | Cc1ccc(Sc2nccnc2N2CCCC(C(=O)N3CCN(c4ccccc4)CC3)C2)cc1 (stereo not given) |
| 679 | c1ccc(-c2noc(-c3ccccc3OC3CNC3)n2)cc1 |
| 1090 | Cc1nc2c(sc3nc(-c4ccccc4)ccc32)c(=O)n1CC(=O)Nc1ccccc1Cl |
| 720 | Cc1ccc(NC(=O)CN2C(=O)CCc3cc(S(=O)(=O)N4CCCCC4C)ccc32)cc1C (stereo not given) |
| 780 | C=CCNC(=O)C1CCCN(C(=O)Nc2ccc(NC(=O)Nc3ccc(CC)cc3)cc2)C1 (stereo not given) |
| 800 | COc1ccccc1NC(=O)N1CCCC1c1cc(C)on1 (stereo not given) |
| 887 | CCc1ccc(NC(=O)N2C[C@@H](F)C[C@H]2C(=O)N2CCc3ccccc3C2)cc1 |
| 887 | COC(=O)c1ccc2c(=O)n(-c3cccc(OC)c3)c(N3CCOCC3)nc2c1 |
| 894 | Cc1ccccc1NC(=O)CN1C(=O)CC(c2ccccc2)S(=O)(=O)c2ccccc21 (stereo not given) |
| 636 | CN1C(=O)c2cccn2CC1CNC(=O)c1cccn1C (stereo not given) |
| 784 | CN(C)C(=O)c1csc(S(=O)(=O)N2CCC(C(=O)NCc3ccccc3Cl)CC2)c1 |
| 772 | O=C(Nc1cccc(F)c1)c1csc(-c2ccc(N3CCCC3)nc2)n1 |
| 852 | CSc1cccc(NC(=O)Cn2ccn3nc(-c4ccccc4)c(CO)c3c2=O)c1 |
| 608 | O=C(c1ccnc(N2CCNC(c3ccccc3)C2)c1)N1CCN(c2ncccn2)CC1 (stereo not given) |
| 624 | COc1cccc(C(=O)NCC(=O)Nc2nc3ccccc3[nH]2)c1 |
| 755 | Cc1nc(CCNC(=O)C2CCN(S(=O)(=O)c3ccc(Cl)cc3)CC2)cs1 |
| 644 | CCOc1coc(C(=O)NCc2ccccc2OC)cc1=O |
| 1150 | Cc1cccc(C(=O)NCC2CCCN(S(=O)(=O)c3ccc4c(c3)CCCC4)C2)c1 (stereo not given) |
